COc1ccc(C(=O)O)c(OC)c1OC
solubility (mole fraction)
Details | 278.15 K | 283.15 K | 288.15 K | 293.15 K | 298.15 K | 303.15 K | 308.15 K | 313.15 K | 318.15 K
in 2-butoxyethanol | 0.0838 | 0.0944 | 0.113 | 0.127 | 0.148 | 0.167 | 0.185 | 0.207 | 0.25
in 2-ethoxyethanol | 0.179 | 0.207 | 0.238 | 0.264 | 0.289 | 0.318 | 0.353 | 0.39 | 0.431
in 2-methoxyethanol | 0.11 | 0.127 | 0.154 | 0.168 | 0.194 | 0.213 | 0.233 | 0.26 | 0.283
in ethanol | 0.0482 | 0.0585 | 0.0733 | 0.0926 | 0.116 | 0.154 | 0.199 | 0.27 | 0.3
in ethyl acetate | 0.066 | 0.0792 | 0.0992 | 0.112 | 0.13 | 0.174 | 0.236 | 0.283 | 0.301
in ethylene glycol | 0.0165 | 0.0188 | 0.0227 | 0.0281 | 0.036 | 0.0421 | 0.0501 | 0.0635 | 0.0828
in isopropanol | 0.0261 | 0.0363 | 0.0496 | 0.069 | 0.0801 | 0.102 | 0.129 | 0.158 | 0.186
in isopropyl acetate | 0.0412 | 0.0495 | 0.0584 | 0.0692 | 0.0778 | 0.0892 | 0.0988 | 0.115 | 0.137
in n-butyl acetate | 0.047 | 0.0574 | 0.0673 | 0.0751 | 0.0832 | 0.0991 | 0.12 | 0.136 | 0.168
in n-propanol | 0.0312 | 0.0405 | 0.0538 | 0.072 | 0.082 | 0.104 | 0.129 | 0.161 | 0.189
in n-propyl acetate | 0.0357 | 0.0454 | 0.0549 | 0.0722 | 0.0829 | 0.106 | 0.13 | 0.162 | 0.189
in water | 0.000331 | 0.000419 | 0.000497 | 0.000553 | 0.000703 | 0.000892 | 0.00109 | 0.00134 | 0.00152
